Like-named read-outs stand apart in the source and are kept apart here.
Assays:
[1] = target: EGFR (Homo sapiens, UniProt P00533); assay: ADP-Glo kinase assay, EGFR; type: biochemical; parameters: purchased BPS Bioscience (assay run externally by the vendor)
[2] = target: T1, aurora A kinase (AURKA) (Homo sapiens, UniProt O14965); assay: ADP-Glo kinase assay, Aurora A; type: biochemical
T1 construct: purchased BPS Bioscience (assay run externally by the vendor)
T1 sequence (O14965 1-403): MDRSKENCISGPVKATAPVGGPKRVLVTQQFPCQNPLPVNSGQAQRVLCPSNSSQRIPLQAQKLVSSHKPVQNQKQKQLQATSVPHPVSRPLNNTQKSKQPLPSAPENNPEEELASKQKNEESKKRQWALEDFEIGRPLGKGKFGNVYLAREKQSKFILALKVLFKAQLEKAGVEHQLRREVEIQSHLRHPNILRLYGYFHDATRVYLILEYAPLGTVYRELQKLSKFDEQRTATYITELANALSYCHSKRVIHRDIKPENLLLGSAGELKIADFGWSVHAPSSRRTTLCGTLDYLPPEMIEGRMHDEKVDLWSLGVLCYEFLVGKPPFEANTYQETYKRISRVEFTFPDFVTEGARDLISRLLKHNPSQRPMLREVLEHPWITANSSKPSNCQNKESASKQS

EGFR, sequence (P00533 25-1210): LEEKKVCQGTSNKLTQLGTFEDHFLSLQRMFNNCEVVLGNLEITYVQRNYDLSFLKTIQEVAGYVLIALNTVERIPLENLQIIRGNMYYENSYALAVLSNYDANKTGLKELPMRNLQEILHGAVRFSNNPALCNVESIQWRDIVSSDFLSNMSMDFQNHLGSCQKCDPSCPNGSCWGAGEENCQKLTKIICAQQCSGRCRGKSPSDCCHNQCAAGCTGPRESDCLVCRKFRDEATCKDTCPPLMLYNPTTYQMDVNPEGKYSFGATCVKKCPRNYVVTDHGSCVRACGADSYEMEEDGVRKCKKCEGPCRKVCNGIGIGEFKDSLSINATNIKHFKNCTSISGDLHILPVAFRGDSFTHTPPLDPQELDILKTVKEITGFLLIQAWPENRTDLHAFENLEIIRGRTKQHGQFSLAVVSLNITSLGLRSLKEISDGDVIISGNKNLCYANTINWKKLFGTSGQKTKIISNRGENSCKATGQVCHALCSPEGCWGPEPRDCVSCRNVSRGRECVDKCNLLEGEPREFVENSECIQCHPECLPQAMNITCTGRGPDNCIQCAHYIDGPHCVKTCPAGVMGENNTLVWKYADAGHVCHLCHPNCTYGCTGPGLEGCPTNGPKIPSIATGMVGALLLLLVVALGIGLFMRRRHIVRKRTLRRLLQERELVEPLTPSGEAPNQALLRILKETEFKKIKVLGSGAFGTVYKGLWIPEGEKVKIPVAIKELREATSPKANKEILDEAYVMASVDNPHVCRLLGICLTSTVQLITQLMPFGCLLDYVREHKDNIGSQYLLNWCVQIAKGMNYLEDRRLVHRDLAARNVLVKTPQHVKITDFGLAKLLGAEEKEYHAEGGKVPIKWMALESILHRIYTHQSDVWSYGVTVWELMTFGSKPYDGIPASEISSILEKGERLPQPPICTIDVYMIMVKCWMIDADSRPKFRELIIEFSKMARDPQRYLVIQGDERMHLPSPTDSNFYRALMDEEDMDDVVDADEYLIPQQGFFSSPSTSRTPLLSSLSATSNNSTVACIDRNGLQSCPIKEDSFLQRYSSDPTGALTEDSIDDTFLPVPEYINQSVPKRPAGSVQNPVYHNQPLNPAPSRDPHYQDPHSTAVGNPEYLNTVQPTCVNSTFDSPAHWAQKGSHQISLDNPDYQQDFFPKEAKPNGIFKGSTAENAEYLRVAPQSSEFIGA

## Clc1ccc(Nc2ncnc3[nH]ccc23)cc1Cl [Compound 5, N^4-(3,4-dichlorophenyl)-7H-pyrrolo[2,3-d]pyrimidine-4-amine]
[1]
  EGFR inhibition (in words): single-digit nanomolar EGFR inhibition
[1]; 10 µM ATP, triplicate, read-out: EGFR IC50 ± SD
  IC50: 0.0067 ± 0.00025 µM
[1]; Log[nM] 0
  EGFR % Activity Set1: 51%
  EGFR % Activity Set2: 59%
  EGFR % Activity Set3: 58%
[1]; Log[nM] 1.0
  EGFR % Activity Set1: 43%
  EGFR % Activity Set2: 46%
  EGFR % Activity Set3: 48%
[1]; Log[nM] 1.5
  EGFR % Activity Set1: 14%
  EGFR % Activity Set2: 16%
  EGFR % Activity Set3: 16%
[1]; Log[nM] 2.0
  EGFR % Activity Set1: 8%
  EGFR % Activity Set2: 9%
  EGFR % Activity Set3: 9%
[1]; Log[nM] 2.5
  EGFR % Activity Set1: 3%
  EGFR % Activity Set2: 4%
  EGFR % Activity Set3: 5%
[1]; Log[nM] 3.0
  EGFR % Activity Set1: 2%
  EGFR % Activity Set2: 2%
  EGFR % Activity Set3: 2%
[1]; Log[nM] 3.5
  EGFR % Activity Set1: 1%
  EGFR % Activity Set2: 1%
  EGFR % Activity Set3: 1%
[1]; Log[nM] 4.0
  EGFR % Activity Set1: 0%
  EGFR % Activity Set2: 0%
  EGFR % Activity Set3: 1%
[1]; Log[nM] 4.5
  EGFR % Activity Set1: 0%
  EGFR % Activity Set2: 0%
  EGFR % Activity Set3: 0%
[1]; Log[nM] 5.0
  EGFR % Activity Set1: 0%
  EGFR % Activity Set2: 3%
  EGFR % Activity Set3: 1%
[2]; 10 µM ATP, triplicate, read-out: AURKA IC50 ± SD
  IC50: 3.91 ± 0.11 µM
[2]; 10 µM ATP/0.2 mg/ml Kemptide, read-out: Aurora A IC50 (dose-response curve, supplement)
  IC50: 3.9 µM
[2]; Log[nM] 0
  Aurora A % Activity Set1: 95%
  Aurora A % Activity Set2: 97%
  Aurora A % Activity Set3: 103%
[2]; Log[nM] 1.0
  Aurora A % Activity Set1: 104%
  Aurora A % Activity Set2: 95%
  Aurora A % Activity Set3: 97%
[2]; Log[nM] 1.5
  Aurora A % Activity Set1: 98%
  Aurora A % Activity Set2: 101%
  Aurora A % Activity Set3: 102%
[2]; Log[nM] 2.0
  Aurora A % Activity Set1: 104%
  Aurora A % Activity Set2: 107%
  Aurora A % Activity Set3: 105%
[2]; Log[nM] 2.5
  Aurora A % Activity Set1: 103%
  Aurora A % Activity Set2: 108%
  Aurora A % Activity Set3: 106%
[2]; Log[nM] 3.0
  Aurora A % Activity Set1: 91%
  Aurora A % Activity Set2: 104%
  Aurora A % Activity Set3: 91%
[2]; Log[nM] 3.5
  Aurora A % Activity Set1: 55%
  Aurora A % Activity Set2: 51%
  Aurora A % Activity Set3: 58%
[2]; Log[nM] 4.0
  Aurora A % Activity Set1: 16%
  Aurora A % Activity Set2: 21%
  Aurora A % Activity Set3: 19%
[2]; Log[nM] 4.5
  Aurora A % Activity Set1: 11%
  Aurora A % Activity Set2: 12%
  Aurora A % Activity Set3: 11%
[2]; Log[nM] 5.0
  Aurora A % Activity Set1: 11%
  Aurora A % Activity Set2: 12%
  Aurora A % Activity Set3: 13%
